Laboratory results from patent US20070054868A1, “Synergistic polyphenol compounds, compositions thereof, and uses thereof” (The Trustees of Columbia University in the City of New York, priority 2005, published 2007).

Key:
[1] = system: p-HER3; test: Immunoprecipitation and western blot analysis in SW837 cells; format: cell-based, human
Description: Total cellular protein was extracted and equivalent amounts of protein can be determined by western blot analysis using the methods described in Suzui, et al., Cancer Res., 62:3997-4006 (2002). The primary antibodies for several proteins are described in Masuda et al., Clin Cancer Res., 7:4220-4229 (2001); Masuda et al., Clin Cancer Res., 9:3486-3491 (2003); and Shimizu et al., Clin Cancer Res., 11:2735-2746 (2005). The primary antibodies for HER3 (2F12) and COX-2 (PG27) were purchased from Upstate Cell Signaling Solutions (Charlottesville, Va.) and Oxford Biochemical Research (Oxford, Mich.), respectively. To examine the levels of expression of the phosphorylated (i.e. activated) form of the HER3 protein (p-HER3), cellular lysates (1 mg/mL) were incubated with 4 μg anti-HER3 antibody overnight at 4° C. with slow agitation, and immune complexes were then precipitated by adding protein A/G agarose (sc-2003, Santa Cruz Biotechnology, Santa Cruz, Calif.). After incubating for 2 hours at 4° C., the beads were washed with lysis buffer, and bound proteins were eluted into the sample buffer and subjected to western blot analysis, as described above. The p-HER3 protein was then detected by using an anti-phospho-tyrosine antibody (PY-20-HRP, BD Transduction Laboratories, San Diego, Calif.). An antibody to actin was used as a loading control. […]

[2] = system: HT29 cells; test: Filipin staining of plasma membrane cholesterol; format: cell-based, human
Experimental: These effects were detected with as little as […] of EGCG, and within 5 minutes. Phosphorylation of EGFR, ERK1, ERK2, and AKT were suppressed in cells treated with methyl-β-cyclodextrin, which depletes plasma membrane cholesterol. […] In addition, the inhibitory effect of EGCG on phosphorylation of EGFR was not blocked by the addition of cholesterol on the growth medium. These findings provide evidence that EGCG can alter membrane domain organization in colon cancer cells ant that this is not due to cholesterol depletion. It was noted that pre-treatment of the cells with EGCG or Poly E inhibited the binding of Alexa 488-labeled EGF to the cell surface receptor EGFR.

[3] = system: FHC; test: Growth inhibition IC50 against normal fetal colon cell line; format: cell-based, human; conditions: conclusion from Table 4
Description: Cell lines and cell culture. The Caco2, HCT116, HT29, SW480, and SW837 human colorectal cancer cell lines and the FHC normal human fetal colon cell line were obtained from American Type Culture Collection (Manassas, Va.). All cell lines were maintained in DF10 medium containing DMEM (Invitrogen, San Diego, Calif.) supplemented with 10% fetal bovine serum (Invitrogen). The FHC cell line was originally established from the colon of a human fetus at 13 weeks of gestation and has an epithelial morphology. Cells were cultured in an incubator with humidified air at 37° C. with 5% CO2. As an untreated solvent control, cells were treated with DMSO (Sigma Chemical Co., St. Louis, Mo.) at a final concentration of <0.1%. […] Cells to be tested against were plated onto 96-well plates (3×10^3 cells/well) and twenty-four hours later, the cells were treated with an illustrative Synergistic Polyphenol Composition, or one or more illustrative Synergistic Polyphenol Compounds. Neither the medium nor the test compounds were changed during this time period. The assay was done in triplicate. […] The medium and test compounds were not changed during this time period. As a control, the cells were treated with 0.1% DMSO. […] The numbers of cells in replica plates were then determined using a Coulter Counter (Beckman Coulter Co., Fullerton, Calif.) as described in Shimizu et al., Clin. Cancer Res. 2004: 10:1130-40.

[4] = system: SW837 human colon cancer cells; test: DNA fragmentation assay (Cell Death Detection ELISA), apoptosis; format: cell-based
Experimental: SW837 human colon cancer cells (5.0×10^5 cells/6-cm diameter dish) were treated with EGCG (1.0 or 20 μg/mL) for 48 or 96 hours, and samples were then prepared. Control cells were treated only with DMSO. The extent of DNA fragmentation at time 0 hours was set to 1 and increases expressed as fold activation.

[5] = system: HT29 cells; test: Incorporation of DilC16 into the plasma membrane after pretreatment; format: cell-based, human; conditions: HT29 pretreated with test substance
[6] = system: IGFBP-3 mRNA; test: Semiquantitative RT-PCR analysis in SW837 cells; format: cell-based, human; conditions: 20 μg/mL, at 3 to 12 hours, maximum at 6 hours
Experimental: (§1) RNA extraction and semiquantitative RT-PCR analysis were performed as described above in Example 7. Total RNA was isolated from SW837 human colon cancer cells using the Trizol reagent (Invitrogen) according to the manufacturer's instructions. cDNA was amplified from 1 μg of total RNA using Superscript one-step RT-PCR with the platinum Taq system (Invitrogen). Actin specific primer sets are described in Suzui, et al., Cancer Res., 62:3997-4006 (2002). […] Each amplification cycle consisted of 0.5 minutes at 94° C. for denaturation, 0.5 minutes at 55° C. for primer annealing, and 1 minute at 72° C. for extension. After PCR amplification, the fragments were analyzed by agarose gel electrophoresis and stained with ethidium bromide. The intensities of bands were quantified with NIH Image software version 1.62.

[7] = system: IGF-1 mRNA; test: Semiquantitative RT-PCR analysis in SW837 cells; format: cell-based, human; conditions: 20 μg/mL, at 12 hours, additional decline at 24 and 48 hours
Experimental: as §1

[8] = system: MMP-9 mRNA; test: Semiquantitative RT-PCR analysis in SW837 cells; format: cell-based, human; conditions: 20 μg/mL, at 12 hours, additional decrease at 24 to 48 hours
Experimental: as §1

[9] = system: TGF-β2 mRNA; test: Semiquantitative RT-PCR analysis in SW837 cells; format: cell-based, human; conditions: 20 μg/mL, at 3 hours
Experimental: as §1

[10] = system: MMP-7 mRNA; test: Semiquantitative RT-PCR analysis in SW837 cells; format: cell-based, human; conditions: 20 μg/mL, at 12 hours, additional decrease at 24 to 48 hours
Experimental: as §1

Q: For (−)-epigallocatechin gallate, which “levels of the p-HER3 protein” value ([1]; 1.0 μg/mL, 96 hours) is on record?
A: decrease

Q: And the “levels of the p-HER3 protein” value ([1]; 20 μg/mL, within 6 hours)?
A: marked decrease

Q: What about the “effects on plasma membrane properties versus cholesterol depletion (filipin staining)” value [2] of the same substance?
A: not associated with cholesterol depletion

Q: And the “growth inhibition of colorectal cancer cells relative to FHC normal cells” value [3]?
A: preferentially inhibit

Q: What about the “apoptosis (DNA fragmentation)” value ([4]; 1.0 μg/mL, 96 hours) of the same substance?
A: significant increase

Q: And the “apoptosis (DNA fragmentation)” value ([4]; 20 μg/mL, 48 hours)?
A: induction of apoptosis

Q: What about the “subsequent incorporation of DilC16 into the plasma membrane” value [5] of the same substance?
A: inhibit

Q: And the “levels of IGFBP-3 mRNA” value [6]?
A: increase

Q: What about the “level of IGF-1 mRNA” value [7] of the same substance?
A: decrease

Q: And the “cellular level of MMP-9 mRNA” value [8]?
A: marked decrease

Q: What about the “level of TGF-β2 mRNA” value [9] of the same substance?
A: transiently increased

Q: What about the “cellular level of MMP-7 mRNA” value [10] of the same substance?
A: marked decrease
